Experimental data published in patent US20240343706A1, “PIPERIDINE-2,6-DIONE DERIVATIVES WHICH BIND TO CEREBLON, AND METHODS OF USE THEREOF” (Captor Therapeutics S.A., priority 2019, published 2024).
pEC50, pKi: −log10 of the molar value.

How the values were obtained:
[1] = molecular target: CRBN-DDB1 protein complex (Homo sapiens, UniProt Q96SW2); assay: Fluorescence polarization (FP) assay, displacement of Cy5-labelled thalidomide; conditions: 25 nM CRBN-DDB1, 5 nM Cy5-labelled thalidomide, read-out: CRBN binding Ki
Procedure: CRBN-DDB1 protein complex was mixed with Cy5-labelled thalidomide and a compound to be tested (the “test compound”). […] The test solution was added to a 384-well assay plate.
The plate was spun-down (1 min, 1000 rpm, 22° C.) and then shaken using a VibroTurbulator for 10 min at room temperature (20-25° C.), with the frequency set to level 3. The assay plate with protein and the tracer was incubated for 60 min at room temperature (20-25° C.) prior to read-out with a plate reader.
The FP experiment was carried out with various concentrations of the test compounds in order to measure Ki values.

SALL4 = SALL4 degradation assay, Kelly cell line (western blot densitometry); type: cell-based; conditions: Kelly cells; for % of protein reduction based on densitometry values, SALL4 (24 H): summary Table 10, 20 μM (some compounds 10 and 20 μM); for % of SALL4 protein reduction, based on densitometry values: 24 h
Text: (§1) After primary and secondary Ab staining, the membranes were washed and signals developed. The densitometry analysis was implemented to obtain the numeric values used later in the protein level evaluation process.

CK1α = CK1α degradation assay, Kelly cell line (western blot densitometry); type: cell-based; conditions: Kelly cells; for % of protein reduction based on densitometry values, CK1α (24 H): summary Table 10, 20 μM (some compounds 10 and 20 μM); for % of CK1α protein reduction, based on densitometry values: 24 h
Text: as §1

IKZF1 = IKZF1 degradation assay, H929 cell line (western blot densitometry); type: cell-based; conditions: H929 cells; for % of protein reduction based on densitometry values, IKZF 1 (24 H): summary Table 10, 20 μM (some compounds 10 and 20 μM)
Text: as §1

IKZF3 = IKZF3 degradation assay, H929 cell line (western blot densitometry); type: cell-based; conditions: H929 cells; for % of protein reduction based on densitometry values, IKZF3 (24 H): summary Table 10, 10 and 20 μM
[2] = molecular target: BRD4-compound-CRBN/DDB1 ternary complex (Homo sapiens, UniProt O60885+Q96SW2); assay: BRD4-compound-CRBN/DDB1 ternary complex formation, AlphaLISA homogenous assay; type: biochemical
Procedure: Biotinylated BRD4 and His-CRBN/DDB1 complex preparations were centrifugated to remove large aggregates (18000 rcf, 4° C., 5 min). Supernatant was collected and protein concentration was determined spectrophotometrically. The AlphaLISA bead-Protein mixtures were prepared: CRBN-acceptor bead (40 μg/ml Anti-6×His beads, 200 nM His-CRBN/DDB1 in PBS pH 7.4 supplemented with 0.1% Tween-20) and BRD4-donor bead (40 μg/ml Streptavidin beads, 40 nM BRD4 in PBS pH 7.4 supplemented with 0.1% Tween-20 and 2 mM DTT). Bead mixes were incubated in dark for 30 minutes at room temperature.
CRBN-acceptor bead mix and BRD4-donor bead mix were combined and dispensed into plate with compounds and DMSO only (10 μl of master mix per well). Final sample composition: 20 μg/ml Anti-6×His beads, 20 μg/ml Stretavidin beads, 100 nM His-CRBN/DDB1, 20 nM BRD4, 2% DMSO, 0.1% Tween-20, 1 mM DTT in PBS pH 7.4, +/− compound. Plate was sealed and covered to protect against light. Sample was mixed using Vibroturbulator. Subsequently, solutions in the plate was centrifugated and incubated in the dark for 30 minutes at 25° C. The plate seal was removed and sample luminescence was determined using Perkin Elmer Enspire plate reader. Readouts were assigned to certain compound concentration. Solutions without compound were utilized to determine background response (an average value) which subsequently was subtracted from raw data collected for compound mixtures.

BRD4 = BRD4 (Homo sapiens, UniProt O60885); assay: BRD4 degradation assay, H929 cell line (Simple Western); conditions: H929 cells, 6 h

Compound	pKi [1]	% of protein reduction based on densitometry values, SALL4 (24 H) (SALL4)	% of protein reduction based on densitometry values, CK1α (24 H) (CK1α)	% of protein reduction based on densitometry values, IKZF 1 (24 H) (IKZF1)	% of IKZF3 protein reduction based on densitometry values, IKZF3 Band I (IKZF3; 10 μM, 24 h)	% of IKZF3 protein reduction based on densitometry values, IKZF3 Band II (IKZF3; 10 μM, 24 h)	% of IKZF3 protein reduction based on densitometry values, IKZF3 Band I (IKZF3; 20 μM, 24 h)	% of IKZF3 protein reduction based on densitometry values, IKZF3 Band II (IKZF3; 20 μM, 24 h)	% of protein reduction based on densitometry values, IKZF3 (24 H) (IKZF3)	% of SALL4 protein reduction, based on densitometry values (SALL4; 10 μM)	% of SALL4 protein reduction, based on densitometry values (SALL4; 20 μM)	% of CK1α protein reduction, based on densitometry values (CK1α; 10 μM)	% of CK1α protein reduction, based on densitometry values (CK1α; 20 μM)	% of IKZF1 α protein reduction based on densitometry values (IKZF1; 10 μM, 24 h)	% of IKZF1 α protein reduction based on densitometry values (IKZF1; 20 μM, 24 h)	other results
Cc1nc2c(C(=O)NC3CCC(=O)NC3=O)cccc2[nH]1 (stereo not shown) [Compound 15, N-(2,6-dioxopiperidin-3-yl)-2-methyl-1H-benzo[d]imidazole-4-carboxamide]	> 6.00	≤25% (≤25% for 0-25% of SALL4 protein reduction)	≤25% (≤25% for 0-25% of CK1a protein reduction)	≤25% (≤25% for 0-25% of IKZF1 protein reduction)	≤25% (≤25% for 0-25% of IKZF3 protein reduction)	≤25% (≤25% for 0-25% of IKZF3 protein reduction)	≤25% (≤25% for 0-25% of IKZF3 protein reduction)	≤25% (≤25% for 0-25% of IKZF3 protein reduction)	≤25% (≤25% for 0-25% of IKZF3 protein reduction)							
COc1cc(C(=O)NC2CCC(=O)NC2=O)c2nc(C)[nH]c2c1 (stereo not shown) [Compound 30, N-(2,6-dioxopiperidin-3-yl)-6-methoxy-2-methyl-1H-benzo[d]imidazole-4-carboxamide]	> 6.00	≤25% (≤25% for 0-25% of SALL4 protein reduction)	≤25% (≤25% for 0-25% of CK1a protein reduction)	≤25% (≤25% for 0-25% of IKZF1 protein reduction)	≤25% (≤25% for 0-25% of IKZF3 protein reduction)	≤25% (≤25% for 0-25% of IKZF3 protein reduction)	≤25% (≤25% for 0-25% of IKZF3 protein reduction)	≤25% (≤25% for 0-25% of IKZF3 protein reduction)	≤25% (≤25% for 0-25% of IKZF3 protein reduction)							
Cc1nc2c(C(=O)NC3CCC(=O)NC3=O)cncc2[nH]1 (stereo not shown) [Compound 35, N-(2,6-dioxopiperidin-3-yl)-2-methyl-3H-imidazo[4,5-c]pyridine-7-carboxamide]	5.00 to 6.00	≤25% (≤25% for 0-25% of SALL4 protein reduction)	≤25% (≤25% for 0-25% of CK1a protein reduction)	≤25% (≤25% for 0-25% of IKZF1 protein reduction)	≤25% (≤25% for 0-25% of IKZF3 protein reduction)	≤25% (≤25% for 0-25% of IKZF3 protein reduction)	≤25% (≤25% for 0-25% of IKZF3 protein reduction)	≤25% (≤25% for 0-25% of IKZF3 protein reduction)	≤25% (≤25% for 0-25% of IKZF3 protein reduction)	≤25% (≤25% for 0-25% of SALL4 protein reduction)	≤25% (≤25% for 0-25% of SALL4 protein reduction)	≤25% (≤25% for 0-25% of CK1a protein reduction)	≤25% (≤25% for 0-25% of CK1a protein reduction)	≤25% (≤25% for 0-25% of IKZF1 protein reduction)	≤25% (≤25% for 0-25% of IKZF1 protein reduction)	
O=C1CCC(NC(=O)c2cccc3cnsc23)C(=O)N1 (stereo not shown) [Compound 50, N-(2,6-dioxopiperidin-3-yl)benzo[d]isothiazole-7-carboxamide]	5.00 to 6.00	≤25% (≤25% for 0-25% of SALL4 protein reduction)	≤25% (≤25% for 0-25% of CK1a protein reduction)	≤25% (≤25% for 0-25% of IKZF1 protein reduction)	≤25% (≤25% for 0-25% of IKZF3 protein reduction)	≤25% (≤25% for 0-25% of IKZF3 protein reduction)	≤25% (≤25% for 0-25% of IKZF3 protein reduction)	≤25% (≤25% for 0-25% of IKZF3 protein reduction)	≤25% (≤25% for 0-25% of IKZF3 protein reduction)	≤25% (≤25% for 0-25% of SALL4 protein reduction)	≤25% (≤25% for 0-25% of SALL4 protein reduction)	≤25% (≤25% for 0-25% of CK1a protein reduction)	≤25% (≤25% for 0-25% of CK1a protein reduction)	≤25% (≤25% for 0-25% of IKZF1 protein reduction)	≤25% (≤25% for 0-25% of IKZF1 protein reduction)	
Cc1sc2c(c1C)C(c1ccc(Cl)cc1)=N[C@@H](CC(=O)NCCCCCCCCNC(=O)CCc1nc3c(C(=O)NC4CCC(=O)NC4=O)cccc3[nH]1)c1nnc(C)n1-2 (stereo partly drawn) [Compound 64, 2-(3-((8-(2-((S)-4-(4-chlorophenyl)-2,3,9-trimethyl-6H-thieno[3,2-f][1,2,4]triazolo[4,3-a][1,4]diazepin-6-yl)acetamido)octyl)amino)-3-oxopropyl)-N-(2,6-dioxopiperidin-3-yl)-1H-benzo[d]imidazole-7-carboxamide]	5.00 to 6.00															% of IKZF1 α protein reduction based on densitometry values (IKZF1; 0.1 μM, 6 h): ≤25% (≤25% for 0-25% of IKZF1 protein reduction); % of IKZF1 α protein reduction based on densitometry values (IKZF1; 1 μM, 6 h): ≤25% (≤25% for 0-25% of IKZF1 protein reduction); % of IKZF1 α protein reduction based on densitometry values (IKZF1; 10 μM, 6 h): ≤25% (≤25% for 0-25% of IKZF1 protein reduction); % of IKZF3 protein reduction based on densitometry values, IKZF3 Band I (IKZF3; 0.1 μM, 6 h): ≤25% (≤25% for 0-25% of IKZF3 protein reduction); % of IKZF3 protein reduction based on densitometry values, IKZF3 Band II (IKZF3; 0.1 μM, 6 h): ≤25% (≤25% for 0-25% of IKZF3 protein reduction); % of IKZF3 protein reduction based on densitometry values, IKZF3 Band I (IKZF3; 1 μM, 6 h): >25% (>25% for 26-74% of IKZF3 protein reduction); % of IKZF3 protein reduction based on densitometry values, IKZF3 Band II (IKZF3; 1 μM, 6 h): ≤25% (≤25% for 0-25% of IKZF3 protein reduction); % of IKZF3 protein reduction based on densitometry values, IKZF3 Band I (IKZF3; 10 μM, 6 h): ≤25% (≤25% for 0-25% of IKZF3 protein reduction); % of IKZF3 protein reduction based on densitometry values, IKZF3 Band II (IKZF3; 10 μM, 6 h): ≤25% (≤25% for 0-25% of IKZF3 protein reduction); pEC50 ([2]; 100 nM His-CRBN/DDB1, 20 nM BRD4, N = 3, read-out: TF50 (compound concentration which mediate the half of maximal response observed for Ternary Complex)): 7.15; Normalized AUC to dBET1 ([2]; area under curve 1.63-2500 nM, normalized to dBET1): 1.45; BRD4 degradation (in words) (BRD4): can degrade BRD4
